Reference: PubChem BioAssay AID184 (DTP/NCI, 2004)
“And” between values parts separate entries of the source, which are not always exact repeats. Identical values can stand only once. Toxic doses and inconclusive results are not listed.

System: BALB/cJ mice, ADJ-PC-6 ip tumor, median survival T/C
Test: NCI In Vivo Anticancer Drug Screen. Data for tumor model ADJ-PC-6 (intraperitoneal) in BALB/cJ mice
Conditions: endpoint: median survival time, higher = longer survival
Method: The antitumor activity of compounds was measured in mice bearing transplantable tumors. Survival or tumor size were measured and the results are expressed as the measurement made in the treated group (T) divided by the measurement made in the vehicle treated control group (C). The tumor model used in this assay is ADJ-PC-6 (intraperitoneal) in BALB/cJ mice

[1] = dose: 7.5 mg/kg/injection, schedule: Q04DX003 (ip), vehicle: saline
[2] = dose: 15.0 mg/kg/injection, schedule: Q04DX003 (ip), vehicle: saline
[3] = dose: 30.0 mg/kg/injection, schedule: Q04DX003 (ip), vehicle: saline
[4] = dose: 60.0 mg/kg/injection, schedule: Q04DX003 (ip), vehicle: saline

C(=N/NC1=NCCN1)/c1c2ccccc2c(/C=N\NC2=NCCN2)c2ccccc12
T/C (dose: 3.75 mg/kg/injection, schedule: Q04DX003 (ip), vehicle: saline): 253 % of control
T/C (dose: 3.75 mg/kg/injection, schedule: Q04DX003 (ip), vehicle: water): 235 % of control
T/C [1]: 204 % of control
T/C (dose: 7.5 mg/kg/injection, schedule: Q04DX003 (ip), vehicle: water): 235 % of control
T/C [2]: 253 % of control
T/C (dose: 15.0 mg/kg/injection, schedule: Q04DX003 (ip), vehicle: water): 235 % of control
T/C [3]: 225 % of control
T/C (dose: 30.0 mg/kg/injection, schedule: Q04DX003 (ip), vehicle: water): 235 % of control
T/C [4]: 267 % of control

CN(C)c1nc(N(C)C)nc(N(C)C)n1
T/C (dose: 20.0 mg/kg/injection, schedule: Q01DX009 (ip), vehicle: saline with Tween-80): 102 % of control
T/C (dose: 40.0 mg/kg/injection, schedule: Q01DX009 (ip), vehicle: Klucel (hydroxypropylcellulose) (HPC)): 96 % of control
T/C (dose: 40.0 mg/kg/injection, schedule: Q01DX009 (ip), vehicle: saline with Tween-80): 100 % of control

O=C1c2c(O)ccc(O)c2C(=O)c2c(NCCNCCO)ccc(NCCNCCO)c21
T/C (dose: 0.38 mg/kg/injection, schedule: Q04DX003 (ip), vehicle: saline): 155 % of control and 267 % of control
T/C (dose: 0.38 mg/kg/injection, schedule: Q04DX003 (iv), vehicle: saline): 89 % of control
T/C (dose: 0.5 mg/kg/injection, schedule: Q04DX003 (ip), vehicle: saline): 188 % of control
T/C (dose: 0.5 mg/kg/injection, schedule: Q04DX003 (ip), vehicle: water): 186 % of control
T/C (dose: 0.75 mg/kg/injection, schedule: Q04DX003 (ip), vehicle: saline): 179 % of control and 267 % of control
T/C (dose: 1.0 mg/kg/injection, schedule: Q04DX003 (ip), vehicle: saline): 207 % of control
T/C (dose: 1.0 mg/kg/injection, schedule: Q04DX003 (ip), vehicle: water): 195 % of control
T/C (dose: 1.5 mg/kg/injection, schedule: Q04DX003 (ip), vehicle: saline): 194 % of control and 267 % of control
T/C (dose: 1.5 mg/kg/injection, schedule: Q04DX003 (iv), vehicle: saline): 153 % of control and 217 % of control
T/C (dose: 2.0 mg/kg/injection, schedule: Q04DX003 (ip), vehicle: saline): 342 % of control
T/C (dose: 2.0 mg/kg/injection, schedule: Q04DX003 (ip), vehicle: water): 235 % of control
T/C (dose: 3.0 mg/kg/injection, schedule: Q04DX003 (ip), vehicle: saline): 194 % of control and 267 % of control
T/C (dose: 3.0 mg/kg/injection, schedule: Q04DX003 (iv), vehicle: saline): 155 % of control and 232 % of control
T/C (dose: 4.0 mg/kg/injection, schedule: Q04DX003 (ip), vehicle: saline): 160 % of control
T/C (dose: 6.0 mg/kg/injection, schedule: Q04DX003 (iv), vehicle: saline): 179 % of control and 267 % of control

N[C@H](C(=O)O)[C@@H]1CC(Cl)=NO1
T/C (dose: 1.0 mg/kg/injection, schedule: Q01DX009 (ip), vehicle: saline): 121 % of control

CO[C@H]1C[C@@H]2CC[C@@H](C)[C@@](O)(O2)C(=O)C(=O)N2CCCC[C@H]2C(=O)O[C@H]([C@H](C)C[C@@H]2CC[C@@H](O)[C@H](OC)C2)CC(=O)[C@H](C)C=C(C)[C@@H](O)[C@@H](OC)C(=O)[C@H](C)C[C@H](C)/C=C/C=C/C=C1C
T/C (dose: 7.5 mg/kg/injection, schedule: Q01DX009 (ip), vehicle: saline with Tween-80): 113 % of control and 114 % of control
T/C (dose: 15.0 mg/kg/injection, schedule: Q01DX009 (ip), vehicle: saline with Tween-80): 116 % of control
T/C (dose: 25.0 mg/kg/injection, schedule: Q01DX009 (ip), vehicle: saline): 87 % of control
T/C (dose: 30.0 mg/kg/injection, schedule: Q01DX009 (ip), vehicle: saline with Tween-80): 114 % of control and 118 % of control
T/C (dose: 50.0 mg/kg/injection, schedule: Q01DX009 (ip), vehicle: saline): 98 % of control
T/C (dose: 60.0 mg/kg/injection, schedule: Q01DX009 (ip), vehicle: saline with Tween-80): 95 % of control and 110 % of control
T/C (dose: 100.0 mg/kg/injection, schedule: Q01DX009 (ip), vehicle: saline): 87 % of control
T/C (dose: 120.0 mg/kg/injection, schedule: Q01DX009 (ip), vehicle: saline with Tween-80): 87 % of control
T/C (dose: 200.0 mg/kg/injection, schedule: Q01DX009 (ip), vehicle: saline): 93 % of control

CO[C@H]1C[C@](C)(O)Cc2cc3c(c(O)c21)C(=O)c1c(O)cc2c(c1C3=O)O[C@@H]1O[C@@]2(C)[C@H](O)[C@@H](N(C)C)[C@@H]1O
T/C [1]: 188 % of control
T/C (dose: 12.5 mg/kg/injection, schedule: Q04DX003 (ip), vehicle: saline): 189 % of control
T/C [2]: 319 % of control
T/C (dose: 25.0 mg/kg/injection, schedule: Q04DX003 (ip), vehicle: saline): 252 % of control
T/C [3]: 267 % of control
T/C [4]: 471 % of control
